According to US6653300B2, “Pyrazole compounds useful as protein kinase inhibitors” (Vertex Pharmaceuticals Incorporated, priority 2000, dated 2003):
pKi: −log10 of the molar value.

Experiments:
CDK-2/Cyclin A = CDK-2/Cyclin A (Homo sapiens, UniProt P24941); experiment: CDK-2 inhibition assay (coupled enzyme assay); type: biochemical; conditions: 25 nM CDK-2/Cyclin A, 30° C.
Procedure: Compounds were screened in the following manner for their ability to inhibit CDK-2 using a standard coupled enzyme assay (Fox et al (1998) Protein Sci 7, 2249).
To an assay stock buffer solution containing 0.1M HEPES 7.5, 10 mM MgCl2, 1 mM DTT, 25 mM NaCl, 2.5 mM phosphoenolpyruvate, […], 30 mg/ml pyruvate kinase, 10 mg/ml lactate dehydrogenase, 100 mM ATP, and 100 μM peptide ([…], American Peptide, Sunnyvale, Calif.) was added a DMSO solution of a compound of the present invention to a final concentration of 30 μM. The resulting mixture was incubated at 30° C. for 10 min.
The reaction was initiated by the addition of 10 μL of CDK-2/Cyclin A stock solution to give a final concentration of 25 nM in the assay. The rates of reaction were obtained by monitoring absorbance at 340 nm over a 5-minute read time at 30° C. using a BioRad Ultramark plate reader (Hercules, Calif.). The Ki values were determined from the rate data as a function of inhibitor concentration.

Aurora-2 = target: T1, Aurora-2 (Homo sapiens, UniProt O14965); experiment: Ki determination for the inhibition of Aurora-2 (coupled enzyme assay); type: biochemical; conditions: 70 nM Aurora-2, 30° C.
T1 sequence (O14965 1-403): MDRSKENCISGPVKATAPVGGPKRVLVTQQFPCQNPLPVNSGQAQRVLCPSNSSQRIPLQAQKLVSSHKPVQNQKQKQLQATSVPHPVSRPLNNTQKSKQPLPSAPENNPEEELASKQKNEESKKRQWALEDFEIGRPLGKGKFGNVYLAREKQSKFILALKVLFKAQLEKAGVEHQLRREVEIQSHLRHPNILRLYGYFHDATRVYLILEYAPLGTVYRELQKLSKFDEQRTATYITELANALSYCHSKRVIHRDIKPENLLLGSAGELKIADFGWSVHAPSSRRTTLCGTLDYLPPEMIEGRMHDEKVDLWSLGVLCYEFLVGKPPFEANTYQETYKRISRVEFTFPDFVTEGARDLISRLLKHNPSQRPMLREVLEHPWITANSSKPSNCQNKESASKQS
Method in brief: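 Ki came from reaction rates plotted against inhibitor concentration, with rates taken as A340 decrease over 5 min at 30° C. Enzyme (70 nM final) was added after 10 min compound preincubation; stock buffer held […], 800 μM LRRASLG, PK/LDH coupling, pH 7.5.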

activated ERK2 = activated ERK2 (Homo sapiens, UniProt P28482); experiment: ERK inhibition assay (spectrophotometric coupled-enzyme assay); type: biochemical; conditions: 10 nM activated ERK2, 65 μM ATP, 30° C.; read-out: Ki values for ERK-2
Procedure: Compounds were assayed for the inhibition of ERK2 by a spectrophotometric coupled-enzyme assay (Fox et al (1998) Protein Sci 7, 2249).

human Src kinase = target: T2, human Src kinase (Homo sapiens, UniProt P12931); experiment: SRC inhibition assay (radioactivity-based or spectrophotometric assay); type: biochemical; conditions: recombinant human Src kinase; assay A or B; read-out: Ki value on SRC
T2 construct: full length recombinant human Src kinase (from Upstate Biotechnology, cat. no. 14-117); purchased Upstate Biotechnology 14-117; host or cells: baculo viral cells
Method in brief: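 Full-length recombinant human Src from baculovirus was used. In the radiometric format, enzyme was preincubated 10 min at 30 °C, the reaction was started with ^33P-ATP and run 20 min, then TCA-quenched and filter-counted. The alternative format monitored poly Glu-Tyr phosphorylation by NADH-coupled A340 rate. Ki came from competitive-inhibition fits.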

T2 sequence (P12931 whole entry): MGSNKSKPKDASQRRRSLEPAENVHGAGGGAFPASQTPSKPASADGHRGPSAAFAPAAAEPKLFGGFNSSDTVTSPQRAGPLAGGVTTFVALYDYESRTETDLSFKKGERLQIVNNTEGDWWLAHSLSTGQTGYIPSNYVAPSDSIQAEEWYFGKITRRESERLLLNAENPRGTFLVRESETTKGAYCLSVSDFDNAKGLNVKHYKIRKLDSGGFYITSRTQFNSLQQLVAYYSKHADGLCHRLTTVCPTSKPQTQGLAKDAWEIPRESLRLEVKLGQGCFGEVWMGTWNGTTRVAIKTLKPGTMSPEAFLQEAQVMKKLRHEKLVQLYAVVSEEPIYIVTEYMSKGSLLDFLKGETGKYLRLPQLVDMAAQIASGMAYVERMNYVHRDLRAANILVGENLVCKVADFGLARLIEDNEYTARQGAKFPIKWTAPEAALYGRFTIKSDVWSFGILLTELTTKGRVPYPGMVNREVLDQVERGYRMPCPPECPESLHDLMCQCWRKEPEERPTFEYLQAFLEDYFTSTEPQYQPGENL
Sequence of activated ERK2 (P28482 whole entry): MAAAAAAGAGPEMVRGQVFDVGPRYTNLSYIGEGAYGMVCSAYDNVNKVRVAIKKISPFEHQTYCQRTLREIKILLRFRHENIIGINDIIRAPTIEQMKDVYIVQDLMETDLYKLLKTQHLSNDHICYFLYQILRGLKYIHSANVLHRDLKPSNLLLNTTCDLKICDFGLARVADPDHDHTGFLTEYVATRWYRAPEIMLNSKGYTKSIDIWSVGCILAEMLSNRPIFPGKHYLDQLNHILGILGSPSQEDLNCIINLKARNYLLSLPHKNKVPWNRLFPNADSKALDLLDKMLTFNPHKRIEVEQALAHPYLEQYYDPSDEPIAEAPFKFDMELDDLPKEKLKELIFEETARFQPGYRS

SMILES: c1ccc2c(Nc3cc(C4CC4)[nH]n3)nc(Nc3ccc4ncsc4c3)nc2c1 [IIc-32, [2-(Benzothiazol-6-ylamino)-quinazolin-4-yl]-(5-cyclopropyl-2H-pyrazol-3-yl)-amine]
- pKi (CDK-2/Cyclin A): > 6.00
- melting point: 255 to 256 °C
- pKi (Aurora-2): > 7.00
- pKi (activated ERK2): > 6.00
- pKi (human Src kinase): > 7.00
